Measured values taken from publication PMC11884657, “Ru(II)-Fenamic-Based Complexes as Promising Human Ovarian Antitumor Agents: DNA Interaction, Cellular Uptake, and Three-Dimensional Spheroid Models” (Inorganic Chemistry, 2025).
Read-outs that look alike come from different tables or passages of the source.

Assays:
A2780 cells = test: Cellular uptake of ruthenium by HR-CS GFAAS; type: cell-based, human; conditions: 1 μM complex, 4 h
Description: Due to the higher cytotoxicity of complexes 1 and 2 against the A2780 cell line, experiments were performed to evaluate their cell internalization capacity. These studies are crucial to determine whether the complexes can efficiently penetrate the cell membrane and to correlate their antiproliferative effects with their uptake levels.[59] A2780 cells were exposed to complexes 1 and 2 (1 μM) over a period of 4 h, and the cellular uptake of ruthenium was quantified using graphite furnace atomic absorption spectrometry.
A2780 cancer cells (2 × 10^6 cells/plate) were seeded in Petri dishes. After 24 h, complexes 1 and 2 (1 μM) were added to the cells for 4 h. Subsequently, the RPMI medium was removed, and the cells were washed with phosphate-buffered saline (PBS), trypsinized, and counted. The ruthenium absorbance measurements were conducted with an Analytik Jena ContrAA 700 graphite furnace atomic absorption spectrometer (Jena, Germany), equipped with solid sampling tubes. The absorbance measurements were performed at 349.8945 nm, with the peak volume selected absorbance (PVSA) corresponding to three pixels. The heating program for the graphite furnace, used for the quantitative determination of ruthenium, is depicted in Table S4.[66] The analytical working solution of 50 mg L^–1 Ru was prepared by diluting standard solutions of 1000 mg L^–1 Ru (Specsol, São Paulo, Brazil) and acidifying with 0.5% (v/v) HNO3. To establish the calibration curve, appropriate aliquots of the analytical working solution were added to the atomizer to achieve concentrations of 0.1, 0.3, 0.6, 0.9, 1.2, and 1.5 ng of ruthenium. The cell suspension containing the internalized complexes was diluted with 500 μL of deionized water, acidified with 0.5% (v/v) HNO3, and homogenized using a vortex mixer (IKA model V1). For the determination of Ru by SS HR-CS GFAAS, 10 μL aliquots of the samples were transferred to the platform and introduced automatically into the graphite furnace, in which all measurements were carried out in triplicate.

A2780 tumor spheroids = test: 3D tumor spheroids; type: cell-based, human
Description: In this experiment, the spheroids were monitored for 144 h after treatment with 1 at several concentrations (0.78–12.5 μM). […] As observed, at this concentration there is a decrease in the diameter, followed by stabilization, after treatment for 48 h. […] These findings underscore the necessity to refine in vitro methodologies to better elucidate the potential of novel compounds. Such improvements are crucial for increasing the likelihood of identifying critical insights early in the drug discovery and development process, thereby minimizing errors in subsequent stages. After treatment for 144 h, double staining with both DAPI and PI was performed.
In a 96-well Bioprint Kit [Magnetic 3D Cell Culture Technology (m3D)], the 3D culture experiment was carried out. Initially, to the A2780 cells was added 150 μL of a solution containing nanoparticles (NanoShuttle - PL). The A2780 cells were added to a 96-well repellent culture plate after 24 h. The resulting 1500 cells/well were placed under magnetic drives to form spheroids through the magnetic forces of the magnets. […] The formation of spheroids and their growth were monitored by a Digital Imaging System microscope (CELENA S, Logos Biosystems). Once the spheroids were formed, complex 1 at different concentrations (0.78, 1.56, 3.12, 6.25, and 12.5 μM) was added, and the effect of the compound on the spheroids was monitored for 144 h. […]

A2780 cancer cells = test: Clonogenic survival assay; type: cell-based, human; conditions: 0.5 × IC50, 48 h treatment then 7 days
Description: The A2780 cancer cells were used for the clonogenic assay, in which a total of 400 cells/well were seeded in a six-well plate in RPMI medium, and after incubation for 24 h, different concentrations of complexes 1 and 2 were added. The plates containing the complexes were incubated (37 °C and 5% of CO2) for 48 h. The culture medium was replaced with fresh medium, and the system was incubated again for 7 days under the same condition. Thereafter, all culture media were removed from the plate, and the cells were washed with PBS and fixed with a 3:1 methanol/acetic acid mixture. Then the cells were colored with a 0.5% crystal violet solution in water for 30 min. Images were taken, and the colonies counted using ImageJ. The experiment was also carried out in triplicate.

[1] = tested on: A2780 ovarian cancer cells; test: Morphological assay (bright field, PI, DAPI/Green Plasma); type: cell-based, human; conditions: for DAPI and Green Plasma staining / propidium iodide fluorescence intensity: 48 h, 0.5 × IC50, IC50, 2 × IC50; for cell morphology: up to 48 h, mainly at higher concentrations
Description: For morphological analysis, A2780 cancer cells (0.3 × 10^5 cells/well) were added to a 12-well plate in RPMI medium. After 24 h, different concentrations of complexes 1 and 2 were introduced into the cells. Possible morphological changes were evaluated at 0 and 48 h using an inverted optical microscope (NIKON ECLIPSE TS100) coupled with a Motcam 1SP camera, with a 10× objective lens.
Additionally, 1.5 × 10^4 A2780 cells/well were plated in 96-well plates in RPMI medium for the fluorescence morphology experiments. After treatment for 48 h, 100 μL (1 μg mL^–1) of the fluorescent marker PI ([…]) was added. For the morphological assessment using the fluorescent markers DAPI (4′,6-diamidino-2-phenylindole dilactate) and Green Plasma (CellMask), the cells were fixed in methanol and 80 μL (1 μg mL^–1) portions of the markers were added. Images were taken using a CELENA microscope (Logos Biosystems).

A549 (lung) cancer cells = test: MTT cytotoxicity assay, A549; conditions: read-out: In Vitro Cytotoxicity IC50, A549
Description: (§1) The cell lines were grown in culture bottles and incubated at a CO2 concentration of 5% and 37 °C.
(§2) Cell viability was investigated via the MTT [3-(4,5-dimethylthiazol-2-yl)-2,5-diphenyltetrazolium bromide] assay. This method consists of the capacity of enzymes present in living cells, especially in mitochondria, to reduce MTT to formazan, a purple-colored compound. […] For the assays, 1.5 × 10^4 cells/well were seeded in 96-well flat-bottom cell culture plates (KASVI). The plates were incubated for 24 h; then, different concentrations of the complexes were pipetted, and the plates were treated for an additional 48 h. To complete the treatment, 50 μL of MTT (1 mg/mL in PBS) was added to each well, followed by incubation for 3 h. The formazan crystals that formed were solubilized in isopropanol, and the absorbance was read with a microplate reader (BioTek, Epoch) at 540 nm. Cell viability (IC50) was assessed with GraphPad Prism 8.

[2] = tested on: MRC-5 (lung) normal cells; test: MTT cytotoxicity assay, MRC-5; conditions: read-out: In Vitro Cytotoxicity IC50, MRC-5; MTT, 48 h treatment
Description: as §1, §2

[3] = tested on: A2780 (ovarian) cancer cells; test: MTT cytotoxicity assay, A2780; conditions: read-out: In Vitro Cytotoxicity IC50, A2780
Description: as §1, §2

[4] = tested on: A2780cis (ovarian cisplatin-resistant) cancer cells; test: MTT cytotoxicity assay, A2780cis; conditions: read-out: In Vitro Cytotoxicity IC50, A2780cis
Description: as §1, §2

[5] = tested on: MDA-MB-231 (breast) cancer cells; test: MTT cytotoxicity assay, MDA-MB-231; conditions: read-out: In Vitro Cytotoxicity IC50, MDA-MB-231
Description: as §1, §2

[6] = MTT cytotoxicity assay, MRC-5; conditions: human
Description: as §1, §2

in vitro = conditions: human
Description: as §1, §2

Stability by 31P{1H} NMR = conditions: 48 h
Description: Furthermore, the stability of the complexes was studied via ^31P{^1H} NMR in DMSO and a DMSO/DMEM (Dulbecco’s modified Eagle’s medium) solution over 48 h. […] In the same way, stability assays were performed for the precursor cis-[RuCl2(bipy)(dppp)].

Structure (SMILES)	IC50 (A549 (lung) cancer cells; MTT, 48 h treatment) [µM]	IC50 [2] [µM]	IC50 ([3]; MTT, 48 h treatment) [µM]	IC50 ([4]; MTT, 48 h treatment) [µM]	IC50 ([5]; MTT, 48 h treatment) [µM]	IC50 (A549 (lung) cancer cells; Homo sapiens, A549, 48 h) [µM]	IC50 ([3]; Homo sapiens, A2780, 48 h) [µM]	IC50 ([4]; Homo sapiens, A2780cis, 48 h) [µM]	IC50 ([5]; Homo sapiens, MDA-MB-231, 48 h) [µM]	further results
F[P-](F)(F)(F)(F)F.c1ccc(Nc2ccccc2C2=[O+][Ru-4]34([O]2)([n+]2ccccc2-c2cccc[n+]23)[P+](c2ccccc2)(c2ccccc2)CCC[P+]4(c2ccccc2)c2ccccc2)cc1 [complex 1, [Ru(Fen)(bipy)(dppp)]PF6]	3.96 ± 0.4	2.47 ± 0.18	0.66 ± 0.04	0.96 ± 0.04	2.87 ± 0.11					Ru uptake percentage (A2780 cells): 3,6%; amount of ruthenium internalized by A2780 cells (A2780 cells): 20,8 ± 3,2 ng; concentration at which spheroid growth (diameter) was significantly compromised (A2780 tumor spheroids; 0.78–12.5 μM tested, monitored 144 h): 12.5 µM; PI fluorescence in spheroids (A2780 tumor spheroids; DAPI/PI double staining after 144 h): increase in the fluorescence intensity of the PI marker; effect on colony formation (A2780 cancer cells): significantly reduced both the number and size of colonies; DAPI and Green Plasma staining [1]: significant shortening of the plasma membrane, while the nucleus remained intact; propidium iodide fluorescence intensity [1]: significant increase in fluorescence intensity; cell morphology [1]: loss of adhesion and round cells are observed
Cc1c(Cl)cccc1Nc1ccccc1C(=O)O [HMTFe, tolfenamic acid]						> 100	> 100	> 100	> 100	IC50 at 48 h [6]: > 100 µM
Cc1cccc(Nc2ccccc2C2=[O+][Ru-4]34([O]2)([n+]2ccccc2-c2cccc[n+]23)[P+](c2ccccc2)(c2ccccc2)CCC[P+]4(c2ccccc2)c2ccccc2)c1C.F[P-](F)(F)(F)(F)F [complex 2, [Ru(MFen)(bipy)(dppp)]PF6]	4.57 ± 0.08	2.33 ± 0.04	0.91 ± 0.06	1.11 ± 0.06	3.99 ± 0.21					Ru uptake percentage (A2780 cells): 4,5%; amount of ruthenium internalized by A2780 cells (A2780 cells): 26,0 ± 1,9 ng; effect on colony formation (A2780 cancer cells): significantly reduced both the number and size of colonies; DAPI and Green Plasma staining [1]: significant shortening of the plasma membrane, while the nucleus remained intact; propidium iodide fluorescence intensity [1]: significant increase in fluorescence intensity; cell morphology [1]: loss of adhesion and round cells are observed
FC(F)(F)c1cccc(Nc2ccccc2C2=[O+][Ru-4]34([O]2)([n+]2ccccc2-c2cccc[n+]23)[P+](c2ccccc2)(c2ccccc2)CCC[P+]4(c2ccccc2)c2ccccc2)c1.F[P-](F)(F)(F)(F)F [complex 4, [Ru(FFen)(bipy)(dppp)]PF6]	6.87 ± 0.35	4.36 ± 0.19	2.14 ± 0.11	4.25 ± 0.11	2.34 ± 0.14					
c1ccc(P(CCCP(c2ccccc2)c2ccccc2)c2ccccc2)cc1 [Dppp, 1,3-bis(diphenylphosphino)propane]						> 100	> 100	> 100	> 100	IC50 at 48 h (in vitro): > 100 µM
c1ccc(-c2ccccn2)nc1 [Bipy, 2,2′-bipyridine]						> 100	> 100	> 100	> 100	IC50 at 48 h ([6]; MRC-5 normal lung cells): > 100 µM
O=C(O)c1ccccc1Nc1ccccc1 [HFe, fenamic acid]						> 100	> 100	> 100	> 100	IC50 at 48 h [6]: > 100 µM
O=C(O)c1ccccc1Nc1cccc(C(F)(F)F)c1 [HMFFe, flufenamic acid]						> 100	> 100	> 100	> 100	IC50 at 48 h (in vitro): > 100 µM
Cc1c(Cl)cccc1Nc1ccccc1C1=[O+][Ru-4]23([O]1)([n+]1ccccc1-c1cccc[n+]12)[P+](c1ccccc1)(c1ccccc1)CCC[P+]3(c1ccccc1)c1ccccc1.F[P-](F)(F)(F)(F)F [complex 3, [Ru(TFen)(bipy)(dppp)]PF6]	8.74 ± 0.23	3.58 ± 0.02	2.25 ± 0.08	2.68 ± 0.26	3.71 ± 0.15					
[Cl][Ru-4]12([Cl])([n+]3ccccc3-c3cccc[n+]31)[P+](c1ccccc1)(c1ccccc1)CCC[P+]2(c1ccccc1)c1ccccc1 [[RuCl2(bipy)(dppp)], cis-[RuCl2(bipy)(dppp)]]	> 50	40.9 ± 1.76	28 ± 0.81	35.6 ± 1.7	26.1 ± 4.84					stability in DMSO (Stability by 31P{1H} NMR): new signals are observed at ∼40 ppm; stability in DMSO/DMEM solution (Stability by 31P{1H} NMR): two other doublets with chemical shifts at ∼33 and ∼46 ppm
Cc1cccc(Nc2ccccc2C(=O)O)c1C [HMFe, mefenamic acid]						> 100	> 100	> 100	> 100	IC50 at 48 h [6]: > 100 µM
